{"source": "patent US12540154B2", "about": "“Glucosamine derivative nanoparticle and preparating method and use thereof” (CPC Corporation, TAIWAN, priority 2023, dated 2026)", "test_system": "HaCaT cells", "experiment": "Cell cytotoxicity test (CCK-8)", "type": "cell-based, human", "conditions": "125-1,000 ppm, 24 hours, CCK-8, FIG. 6", "experimental": "HaCaT cells are seeded into a 96 well plate at 10^5 cells/well. After attachment overnight, remove culture medium. The frozen peptide (KTTKS(SEQ ID NO: 1), CRGDS(SEQ ID NO: 2), and RRRRRR(SEQ ID NO: 3)) and the glucosamine derivative nanoparticles are respectively dissolved in serum-free medium (SFM) again (final concentration 1,000 ppm). Use SFM to carry out serial dilution and get concentrations of 500 ppm, 250 ppm, and 125 ppm. Then add 100 μl samples with different concentrations into the well plate (repeat four times and a group of samples added with SFM used as control group). After being cultured for 24 hours, remove culture medium and add 10 μl CCK-8 and 100 μl PBS into each of the wells. Then react at 37° C. for 2-3 hours and read absorbance at 450 nm. Cell viability is defined as a percentage of the absorbance of the respective test groups relative to the absorbance of the control group while the cell viability of the control group is set as 100%.", "data": [{"smiles": "N[C@H]1C(O)O[C@H](CO)[C@@H](O)[C@@H]1O", "note": "(stereo partly shown) [glucosamine]", "values": [{"measurement": "cell viability trend with concentration", "value": "reduced a bit along with the increasing glucosamine concentration"}]}]}
